Assay [1] relates to Mycosphaerella arachidis (Cercospora arachidicola). The assay can be described thus: Mycosphaerella arachidis (Cercospora arachidicola) / liquid culture (early leaf spot). The note with it: compared to untreated control. Type of assay: cell-based. As to the method: Example B9: Mycosphaerella arachidis (Cercospora arachidicola)/Liquid Culture (Early Leaf Spot) Conidia of the fungus from cryogenic storage are directly mixed into nutrient broth (PDB potato dextrose broth). After placing a (DMSO) solution of test compound into a microtiter plate (96-well format), the nutrient broth containing the fungal spores is added. The test plates are incubated at 24° C. and the inhibition of growth is determined photometrically 4 to 5 days after application.

For assay [2], the system named is Mycosphaerella graminicola (Septoria tritici). The assay can be described thus: Mycosphaerella graminicola (Septoria tritici) / liquid culture (Septoria blotch). Type of assay: cell-based. Conditions: Zymoseptoria tritici, compared to untreated control. The protocol:
Example B15: Mycosphaerella graminicola (Septoria tritici)/Liquid Culture (Septoria Blotch) Conidia of the fungus from cryogenic storage are directly mixed into nutrient broth (PDB potato dextrose broth). After placing a (DMSO) solution of test compound into a microtiter plate (96-well format), the nutrient broth containing the fungal spores is added. The test plates are incubated at 24° C. and the inhibition of growth is determined photometrically 4 to 5 days after application.

In assay [3] the test system is Pyrenophora teres. Nature of the assay: Pyrenophora teres / barley / leaf disc preventative (net blotch). Type of assay: in vivo. The note with it: foliar, compared to untreated control. As to the method:
Example B12: Pyrenophora teres/Barley/Leaf Disc Preventative (Net Blotch) Barley leaf segments cv. Hasso are placed on agar in a multiwell plate (24-well format) and sprayed with the formulated test compound diluted in water. The leaf segments are inoculated with a spore suspension of the fungus 2 days after application. The inoculated leaf segments are incubated at 20° C. and 65% rh under a light regime of 12 h light/12 h darkness in a climate cabinet and the activity of a compound is assessed as disease control compared to untreated when an appropriate level of disease damage appears in untreated check leaf segments (5 to 7 days after application).

Assay [4] relates to Monographella nivalis (Microdochium nivale). Nature of the assay: Monographella nivalis (Microdochium nivale) / liquid culture (foot rot cereals). It counts as cell-based. Conditions: compared to untreated control. The protocol:
Example B8: Monographella nivalis (Microdochium nivale)/Liquid Culture (Foot Rot Cereals) Conidia of the fungus from cryogenic storage are directly mixed into nutrient broth (PDB potato dextrose broth). After placing a (DMSO) solution of test compound into a microtiter plate (96-well format), the nutrient broth containing the fungal spores is added. The test plates are incubated at 24° C. and the inhibition of growth is determined photometrically 4 to 5 days after application.

Assay [5] relates to Alternaria solani. The assay can be described thus: Alternaria solani / tomato / leaf disc (early blight). It counts as in vivo. The note with it: foliar, compared to untreated control. As to the method:
Example B1: Alternaria solani/Tomato/Leaf Disc (Early Blight) Tomato leaf disks cv. Baby are placed on agar in multiwell plates (24-well format) and sprayed with the formulated test compound diluted in water. The leaf disks are inoculated with a spore suspension of the fungus 2 days after application. The inoculated leaf disks are incubated at 23° C./21° C.

For the compound `Cc1c([C@H]2CN(C(=O)CCCC=C(F)F)[C@@H](C)c3ccccc32)cnn1C` (racemic) [Compound P-26, 6,6-difluoro-1-[rac-(1S,4S)-4-(1,5-dimethylpyrazol-4-yl)-1-methyl-3,4-dihydro-1H-isoquinolin-2-yl]hex-5-en-1-one], the inhibition of growth at 20 ppm in assay [1] and in assay [2] was at least 80% in each case.

Turning to `Cc1c([C@H]2CN(C(=O)CCCCC(F)F)[C@@H](C)c3ccccc32)cnn1C` (racemic) [Compound P-27, 6,6-difluoro-1-[rac-(1S,4S)-4-(1,5-dimethylpyrazol-4-yl)-1-methyl-3,4-dihydro-1H-isoquinolin-2-yl]hexan-1-one], the inhibition of growth at 20 ppm in assay [1], in assay [2] and in assay [4] was at least 80% throughout. In addition, in assay [3], the pest or weed control at 200 ppm was at least 80%.

Turning to `Cc1c([C@H]2CN(C(=O)CCCCCC(F)(F)F)[C@@H](C)c3ccccc32)cnn1C` (racemic) [Compound P-29, 7,7,7-trifluoro-1-[rac-(1S,4S)-4-(1,5-dimethylpyrazol-4-yl)-1-methyl-3,4-dihydro-1H-isoquinolin-2-yl]heptan-1-one], the inhibition of growth at 20 ppm in assay [1], in assay [2] and in assay [4] was at least 80% throughout. The pest or weed control at 200 ppm in assay [5] and in assay [3] was at least 80% in each case.

As for `CCCCCNC(=O)N1C[C@H](c2cnn(C)c2C)c2ccccc2[C@@H]1C` (racemic) [Compound P-43, rac-(1S,4S)-4-(1,5-dimethylpyrazol-4-yl)-1-methyl-N-pentyl-3,4-dihydro-1H-isoquinoline-2-carboxamide], the inhibition of growth at 20 ppm in assay [1], in assay [2] and in assay [4] was at least 80% each time. This compound came in with a pest or weed control at 200 ppm in assay [3] of at least 80%.

Turning to `Cn1cc(C2CN(C(=O)CCc3ccc(F)cc3F)Cc3ccccc32)cn1` (stereo not shown) [Compound P-1, 3-(2,4-difluorophenyl)-1-[4-(1-methylpyrazol-4-yl)-3,4-dihydro-1H-isoquinolin-2-yl]propan-1-one], the inhibition of growth at 20 ppm in assay [1] and in assay [2] was at least 80% in each case.

Turning to `Cc1c(C2CN(C(=O)CCc3ccc(F)cc3)Cc3ccccc32)cnn1C` (stereo not shown) [Compound P-7, 1-[4-(1,5-dimethylpyrazol-4-yl)-3,4-dihydro-1H-isoquinolin-2-yl]-3-(4-fluorophenyl)propan-1-one], in assay [5], the pest or weed control at 200 ppm was at least 80%. In assay [2], this compound showed an inhibition of growth at 20 ppm of at least 80%.

`Cc1c(C2CN(C(=O)CSc3ccc(F)cc3F)Cc3ccccc32)cnn1C` (stereo not shown) [Compound P-14, 2-(2,4-difluorophenyl)sulfanyl-1-[4-(1,5-dimethylpyrazol-4-yl)-3,4-dihydro-1H-isoquinolin-2-yl]ethanone]: the inhibition of growth at 20 ppm in assay [1] and in assay [2] was at least 80% each time.

For the compound `Cc1c(C2CN(C(=O)CCCC(C)C)Cc3ccccc32)cnn1C` (stereo not shown) [Compound P-19, 1-[4-(1,5-dimethylpyrazol-4-yl)-3,4-dihydro-1H-isoquinolin-2-yl]-5-methyl-hexan-1-one], the inhibition of growth at 20 ppm in assay [1] and in assay [2] was at least 80% in each case.

For the compound `Cc1c(C2CN(C(=O)CCc3ccc(Cl)cc3)Cc3ccccc32)cnn1C` (stereo not shown) [Compound P-22, 3-(4-chlorophenyl)-1-[4-(1,5-dimethylpyrazol-4-yl)-3,4-dihydro-1H-isoquinolin-2-yl]propan-1-one], the inhibition of growth at 20 ppm in assay [1] and in assay [2] was at least 80% each time. In addition, the pest or weed control at 200 ppm in assay [5] and in assay [3] was at least 80% throughout.

For `Cc1c(C2CN(C(=O)CCCCCC(F)(F)F)Cc3ccccc32)cnn1C` (stereo not shown) [Compound P-30, 1-[4-(1,5-dimethylpyrazol-4-yl)-3,4-dihydro-1H-isoquinolin-2-yl]-7,7,7-trifluoro-heptan-1-one], the inhibition of growth at 20 ppm in assay [1], in assay [2] and in assay [4] was at least 80% each time.

Take `CCCCCNC(=O)N1Cc2ccccc2C(c2cnn(C)c2C)C1` (stereo not shown) [Compound P-31, 4-(1,5-dimethylpyrazol-4-yl)-N-pentyl-3,4-dihydro-1H-isoquinoline-2-carboxamide]: the inhibition of growth at 20 ppm in assay [1] and in assay [2] was at least 80% throughout. Also, the pest or weed control at 200 ppm in assay [5] and in assay [3] was at least 80% throughout.

`Cc1c(C2CN(C(=O)NCC3CCCCC3)Cc3ccccc32)cnn1C` (stereo not shown) [Compound P-36, N-(cyclohexylmethyl)-4-(1,5-dimethylpyrazol-4-yl)-3,4-dihydro-1H-isoquinoline-2-carboxamide] yielded an inhibition of growth at 20 ppm in assay [2] of at least 80%. In addition, the pest or weed control at 200 ppm in assay [3] is at least 80%.

For `Cc1c(C2CN(C(=O)NCCC3CCCCC3)Cc3ccccc32)cnn1C` (stereo not shown) [Compound P-42, N-(2-cyclohexylethyl)-4-(1,5-dimethylpyrazol-4-yl)-3,4-dihydro-1H-isoquinoline-2-carboxamide], the inhibition of growth at 20 ppm in assay [1], in assay [2] and in assay [4] was at least 80% throughout.

`Cc1c(C2CN(C(=O)NCCCCCF)Cc3ccccc32)cnn1C` (stereo not shown) [Compound P-49, 4-(1,5-dimethylpyrazol-4-yl)-N-(5-fluoropentyl)-3,4-dihydro-1H-isoquinoline-2-carboxamide] gave an inhibition of growth at 20 ppm in assay [2] of at least 80%. This compound yielded a pest or weed control at 200 ppm in assay [3] of at least 80%.

Regarding `Cc1c(C2CN(C(=O)NCCCCC(F)F)Cc3ccccc32)cnn1C` (stereo not shown) [Compound P-50, N-(5,5-difluoropentyl)-4-(1,5-dimethylpyrazol-4-yl)-3,4-dihydro-1H-isoquinoline-2-carboxamide], the inhibition of growth at 20 ppm in assay [2] was at least 80%. In assay [3], this compound came in with a pest or weed control at 200 ppm of at least 80%.

As for `Cc1c([C@H]2CN(C(=O)NCCCC3CC3)[C@@H](C)c3ccccc32)cnn1C` [Compound P-51, (1S,4S)-N-(3-cyclopropylpropyl)-4-(1,5-dimethylpyrazol-4-yl)-1-methyl-3,4-dihydro-1H-isoquinoline-2-carboxamide], the inhibition of growth at 20 ppm in assay [1] and in assay [2] was at least 80% throughout.

Consider `Cc1c(C2CN(C(=O)OCCCCC(F)F)Cc3ccccc32)cnn1C` (stereo not shown) [Compound P-54, 5,5-difluoropentyl 4-(1,5-dimethylpyrazol-4-yl)-3,4-dihydro-1H-isoquinoline-2-carboxylate], for which the inhibition of growth at 20 ppm in assay [1] and in assay [2] was at least 80% each time.

On to `Cc1c(C2CN(C(=O)OCCCCCF)Cc3ccccc32)cnn1C` (stereo not shown) [Compound P-55, 5-fluoropentyl 4-(1,5-dimethylpyrazol-4-yl)-3,4-dihydro-1H-isoquinoline-2-carboxylate], for which the inhibition of growth at 20 ppm in assay [1] and in assay [2] was at least 80% in each case.

For the origin of these results see patent US20260193226A1, “MICROBIOCIDAL TETRAHYDROISOQUINOLINE DERIVATIVES” (SYNGENTA CROP PROTECTION AG, priority 2022, published 2026).
